Target: T1, human serotonin 5-HT1A receptor (5-HT1AR) (Homo sapiens, UniProt P08908)
T1 construct: purchased Perkin Elmer
T1 sequence (P08908 1-422): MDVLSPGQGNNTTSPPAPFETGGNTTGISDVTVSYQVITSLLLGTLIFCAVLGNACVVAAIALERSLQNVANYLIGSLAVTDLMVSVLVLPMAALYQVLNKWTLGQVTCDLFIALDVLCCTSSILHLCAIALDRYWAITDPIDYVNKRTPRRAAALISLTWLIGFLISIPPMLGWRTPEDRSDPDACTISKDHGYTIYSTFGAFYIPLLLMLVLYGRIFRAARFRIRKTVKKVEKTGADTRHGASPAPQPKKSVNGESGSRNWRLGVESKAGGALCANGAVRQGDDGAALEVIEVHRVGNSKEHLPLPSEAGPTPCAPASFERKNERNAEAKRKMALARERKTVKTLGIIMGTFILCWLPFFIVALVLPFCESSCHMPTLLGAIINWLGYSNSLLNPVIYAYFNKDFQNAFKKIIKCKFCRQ
Experiment: 5-HT1A activity assay via microplate reader (BODIPY-GTPγS unquenching) in pGUPs
Assay type: biochemical
Details: for Rate (protein functional rate): agonist 8-OH-DPAT, 37° C., 12 hours
Procedure: Fluorescence unquenching of BODIPY-GTPγS due to G protein binding was monitored every 5 minutes. Tracked fluorescence over time was first calculated as percent intensity increase to account for variation in sample size. Curves represent six independent replicates of the same experimental protocol and each time point is an average of the intensity increase. Curves were then normalized for ease in viewing the differences in protein functional rate.
25 mm no. 1 coverslips were cleaned via sonication in MeOH for 30 minutes at 35° C. Coverslips were dried and were further plasma treated in a PDC-32G benchtop plasma cleaner (Harrick Plasma, USA) for 15 minutes. Coverslips were held in Sykes-Moore chambers for vesicle formation. Protein-incorporated polymeric giant unilamellar protein-vesicles (pGUPs) were formed using methods similar to those previously published for lipid vesicles. Briefly, a 1:1 v/v mixture of membrane fragment suspension and agarose (3% w/v) at 45° C. was drop casted onto coverslips for thin film formation. The hydrogel film was allowed to gel and a film of polymer solution (5 mg/ml in CHCl3) was subsequently made. Solvent was evaporated using a stream of N2 gas. […] Vesicles were harvested from the coverslip and diluted in 3× of an isoosmotic glucose solution (200 mM glucose in PBS, pH 7.4). (p)GUPs were allowed to sediment in glucose for 30 minutes at room temperature.
Prepared and settled pGUPs were transferred to a flat bottom 96-well plate. Agonist 8-OH-DPAT was added to each well to a final concentration of 150 nM immediately prior to reading fluorescence. Control pGUPs were run without the addition of the agonist. Rehydration buffer with and without agonist and protein were read as positive and negative controls. Samples were read at physiological temperature (37° C.) every 5 minutes for twelve hours to ensure complete activity assessment. Fluorescence reading of BODIPY-GTPγS unquenching was done on a Biotek Synergy H4 Microplate Reader equipped with a xenon flash lamp. Excitation was set to 485/20 nm and emission at 528/20 nm at a read height of 7 mm.
Fluorescence microtiter results were collect and analyzed using JMP. Six separate observations were fitted and averaged to obtain a single curve with standard error mean values. Rates were fitted to the JMP Mechanistic Growth curve using a single exponential. Statistical analysis using a Tukey-Kramer pairwise comparison of means were done using JMP with a 95% confidence interval (α=0.05).

Structure (SMILES): O=C(CCCN1CCC2(CC1)C(=O)NCN2c1ccccc1)c1ccc(F)cc1 [Spiperone, spiperone]
- Rate (protein functional rate) (14 pM antagonist in pGUPs): 0.102 min⁻¹
- Rate (protein functional rate) (14 nM antagonist in pGUPs): 0.096 min⁻¹
- Rate (protein functional rate) (14 μM antagonist in pGUPs): 0.077 min⁻¹

Structure (SMILES): COc1ccccc1N1CCN(CCCCN2C(=O)c3ccccc3C2=O)CC1 [NAN-190]
- Rate (protein functional rate) (14 μM antagonist in pGUPs): 0.057 min⁻¹
- Effect on protein functional rate (antagonist in pGUPs): reduce the protein functional rate

Reference: patent US20180177729A1, “G PROTEIN-COUPLED RECEPTORS INCORPORATED INTO REHYDRATED POLYMER VESICLES RETAIN FUNCTIONALITY” (UNIVERSITY OF SOUTHERN CALIFORNIA, priority 2016, published 2018)
